{"source": "paper PMC12670164", "about": "“In vitro and clinical data demonstrate negligible risk of drug–drug interactions with opelconazole, a novel inhaled antifungal agent” (Journal of Antimicrobial Chemotherapy, 2025)", "key": {"[1]": {"assay": "Phase 1 study: plasma pharmacokinetics of inhaled opelconazole in healthy volunteers", "type": "in vivo, human", "experimental": "The study was conducted from February 2023 through June 2023 in accordance with the Declaration of Helsinki, Good Clinical Practice, and the International Conference on Harmonisation guidelines (South African National Clinical Trial Registry code: DOH-27-122022-5196). The study documents were approved by an Independent Ethics Committee. Study participants provided written informed consent prior to any study procedures.\nScreening occurred within 28 days prior to the first dosing day (Figure 1). Participants were admitted to the study centre on Day −1 and were required to stay there until approximately 48 h after the morning dosing on Day 15. They returned for subsequent PK blood samples at approximately 72 (Day 18), 168 (Day 22) and 336 h (Day 29) after the last morning dosing. On Days 1 and 15, participants received oral midazolam 7.5 mg and oral caffeine 180 mg together after food ingestion.\nStandard doses of midazolam and caffeine were used to characterize their PK profiles. The dose selected for opelconazole, 14.8 mg twice daily, is the dose utilized in the clinical development programme for the treatment and prevention of invasive pulmonary aspergillosis (IPA). Following 14 days of twice daily dosing, plasma concentrations were expected to be within 80% of steady-state concentrations and deemed appropriate to assess potential interactions with the probe substrates.\nStudy participants inhaled opelconazole 14.8 mg twice daily using the PARI LC SPRINT® jet nebuliser for 14 days, starting on Day 2 through Day 15. Morning doses of opelconazole on Day 2 and Day 15 were taken 30 min after food ingestion. Blood samples were taken for PK analyses for midazolam, metabolites of midazolam (1-OH-midazolam and 4-OH-midazolam) and caffeine on Days 1 and 15 at pre-dose (0 h), at 0.5, 1, 1.5, 2, 3, 4, 6, 8, 10, 12, 16, 24, 30, 36 and 48 h post-dose on Days 1 and 15. Blood samples were taken for PK analyses for opelconazole as follows: on Day 2 at pre-morning dose (0 h), at 0.5, 1, 2, 4, 6, 8, 12 and 24 h post-morning dose; on Day 15: at pre-morning-dose (0 h), at 0.5, 1, 2, 4, 6, 8, 10, 12, 24 (Day 16), 30 (Day 16), 36 (Day 16), 48 (Day 17), 72 (Day 18), 168 (Day 22) and 336 (Day 29) h post-morning-dosing.\nPrimary PK parameters assessed for midazolam and its metabolites (1-OH-midazolam, 4-OH-midazolam), caffeine and opelconazole were Cmax and AUC, from time zero to t, where t is the time of the last quantifiable concentration (AUC(0−t); i.e., AUC(0−12) and AUC(0−24)). Secondary PK parameters were AUC(0−∞), Tmax, apparent t1/2 and accumulation ratio (RO) of opelconazole only."}, "CYP3A4": {"target": "CYP3A4 (Homo sapiens, UniProt P08684)", "sequence (P08684 whole entry, canonical isoform)": "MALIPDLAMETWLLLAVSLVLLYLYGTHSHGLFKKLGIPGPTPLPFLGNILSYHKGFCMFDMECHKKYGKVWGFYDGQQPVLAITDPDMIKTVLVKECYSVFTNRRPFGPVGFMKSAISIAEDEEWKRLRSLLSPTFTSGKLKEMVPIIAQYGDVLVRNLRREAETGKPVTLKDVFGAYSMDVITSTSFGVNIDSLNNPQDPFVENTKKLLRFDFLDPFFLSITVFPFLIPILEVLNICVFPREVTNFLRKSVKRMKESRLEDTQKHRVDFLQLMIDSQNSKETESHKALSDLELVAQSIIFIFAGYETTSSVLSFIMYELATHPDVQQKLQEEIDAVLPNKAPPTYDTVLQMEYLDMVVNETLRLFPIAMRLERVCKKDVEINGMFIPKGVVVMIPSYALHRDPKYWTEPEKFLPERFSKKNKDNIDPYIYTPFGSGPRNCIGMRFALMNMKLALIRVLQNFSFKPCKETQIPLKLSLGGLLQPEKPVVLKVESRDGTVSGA", "settings": "for IC50: read-out: IC50, CYP3A4", "experimental": "The potential for opelconazole to inhibit CYP isoforms was tested in vitro in human liver microsomes. […] Preincubation of the human liver microsomes for periods of 0 min without NADPH and 30 min with NADPH, plus 30 min without NADPH were included to assess for a time-dependent inhibition effect. Two structurally diverse substrates (testosterone and midazolam) were tested to assess substrate-dependent inhibition."}, "[2]": {"system": "OAT1, OAT3, OCT1, OCT2, OATP1B1, OATP1B3, MATE-1, MATE2-K, P-gp, BCRP, BSEP", "assay": "Opelconazole as substrate of carrier transporters", "type": "in vitro ADME, human", "settings": "0.5 and 5 μM; MDCKII, HEK293 cells, BSEP sf9 vesicles", "experimental": "Human transporter protein interactions with opelconazole as a potential substrate and/or inhibitor were assessed for the following key carrier transporters: organic anion transporters, OAT1 and OAT3; organic cation transporters, OCT1 and OCT2; OATP1B1 and OATP1B3; multidrug and toxin extrusion, MATE-1 and MATE2-K; key ATP-binding cassette (ABC) transporters including P-gp, breast cancer resistance protein (BCRP) and bile salt export pump (BSEP). Two concentrations of opelconazole, 0.5 and 5 μM, were tested using MDCKII cells, human embryonic kidney 293 cells and BSEP-transfected sf9 membrane vesicles and then analysed by LC-tandem MS to determine transporter inhibition and whether opelconazole was a transporter substrate. The viability of experimental test systems was confirmed with controls and known probe substrates and probe inhibitors."}, "[3]": {"settings": "Day 2, inhaled 14.8 mg twice daily"}, "[4]": {"settings": "Day 15, after 14 days inhaled 14.8 mg twice daily"}, "[5]": {"settings": "substrate midazolam, 30-min preincubation"}}, "note": "“And” between values parts separate entries of the source, which are not always exact repeats. Identical values can stand only once. Like-named read-outs stand apart in the source and are kept apart here.", "data": [{"smiles": "Cc1cc(N2CCN(c3ccc(C(=O)Nc4ccc(F)cc4)cc3)CC2)ccc1OC[C@@H]1CO[C@@](Cn2cncn2)(c2ccc(F)cc2F)C1", "note": "[opelconazole]", "values": [{"measurement": "AUC(0–12 h), geometric mean (CV%)", "setting": "[1]; Day 2 (first dosing day), inhaled 14.8 mg twice daily", "value": "7.81 (27.8) h·ng/mL"}, {"measurement": "AUC(0-t), geometric mean (CV%)", "setting": "[1]; [3]", "value": "19.9 (29.4) h·ng/mL"}, {"measurement": "AUC(0–24 h), geometric mean (CV%)", "setting": "[1]; [3]", "value": "19.6 (29.4) h·ng/mL"}, {"measurement": "Cmax, geometric mean (CV%)", "setting": "[1]; [3]", "value": "0.91 (29.3) ng/mL"}, {"measurement": "Tmax, median (range)", "setting": "[1]; [3]", "value": "6.17 (2.17, 12.1) h"}, {"measurement": "AUC(0-t), geometric mean (CV%)", "setting": "[1]; [4]", "value": "1270 (45.8) h·ng/mL"}, {"measurement": "AUC(0–12 h), geometric mean (CV%)", "setting": "[1]; [4]", "value": "69.8 (45.4) h·ng/mL"}, {"measurement": "AUC(0–24 h), geometric mean (CV%)", "setting": "[1]; [4]", "value": "136 (46.7) h·ng/mL"}, {"measurement": "Cmax, geometric mean (CV%)", "setting": "[1]; [4]", "value": "7.07 (47.2) ng/mL"}, {"measurement": "Tmax, median (range)", "setting": "[1]; [4]", "value": "4.17 (0.67, 48.0) h"}, {"measurement": "t½, geometric mean (CV%)", "setting": "[1]; [4]", "value": "188 (21.4) h"}, {"measurement": "AUC(0−∞), geometric mean (CV%)", "setting": "[1]; Day 15, inhaled 14.8 mg twice daily, n=2", "value": "1720 (31.2) h·ng/mL"}, {"measurement": "RO (accumulation ratio) AUC(0–12 h) Day 15/Day 2, geometric mean (CV%)", "setting": "[1]; inhaled 14.8 mg twice daily", "value": "8.93 (38.4)"}, {"measurement": "RO (accumulation ratio) AUC(0–24 h) Day 15/Day 2, geometric mean (CV%)", "setting": "[1]; inhaled 14.8 mg twice daily", "value": "6.97 (35.8)"}, {"measurement": "RO (accumulation ratio) Cmax Day 15/Day 2, geometric mean (CV%)", "setting": "[1]; inhaled 14.8 mg twice daily", "value": "7.77 (46.7)"}, {"measurement": "observed RO (Day 15/Day 2) for AUC0–12h", "setting": "[1]; inhaled 14.8 mg twice daily", "value": 8.9, "unit": "fold"}, {"measurement": "observed RO (Day 15/Day 2) for Cmax", "setting": "[1]; inhaled 14.8 mg twice daily", "value": 7.8, "unit": "fold"}, {"measurement": "Cmax", "setting": "[1]; multiple inhaled doses, clinical dosing, read-out: systemic Cmax at steady state", "value": "10 nM and ≤ 10 nM"}, {"measurement": "IC50", "setting": "CYP3A4; [5]", "value": "~150", "unit": "nM"}, {"measurement": "IC50", "setting": "CYP3A4; substrate midazolam, without pre-incubation, 0.001–0.25 µM", "value": 123, "unit": "nM"}, {"measurement": "IC50", "setting": "CYP3A4; substrate testosterone, 30-min preincubations with or without NADPH", "value": 150, "unit": "nM"}, {"measurement": "IC50", "setting": "CYP3A4; substrate testosterone, without pre-incubation, 0.001–0.25 µM", "value": "> 250", "unit": "nM"}, {"measurement": "IC50, CYP3A4", "setting": "CYP3A4; [5]", "value": "~0.102", "unit": "µg/mL"}, {"measurement": "time-dependent inhibition of CYP3A4", "setting": "CYP3A4; [5]", "value": "not evident"}, {"measurement": "substrate of carrier transporters", "setting": "[2]", "value": "not a substrate"}]}]}
